System: lipid oxidation in 1-stearoyl-2-linoleoyl-sn-glycero-3-phosphocholine large unilamellar vesicles (LUVs)
Test: Fluorescence assay for antioxidant activity (DPH-PA probe, Fe2+-induced lipid peroxidation in large unilamellar vesicles)
Assay type: biochemical
Conditions: pH 7.0; for % of inhibition (percent inhibition based upon Fe+2 oxidation): 21 min
Excerpt: The fluorescent assay is described first.
Fluorescence assay for antioxidant activity (general): The need to screen large numbers of compounds or extracts for antioxidant activity requires that a model system (or systems) be employed which reasonably well represents the structural and functional characteristics of the substrate in the food product. The test must also be sensitive, rapid, and inexpensive. […] Large unilamellar vesicles consisting of 1-stearoyl-2-linoleoly-sn-glycero-3-phosphocholine are prepared, which closely resemble the properties of biological membranes, one of the primary sites of peroxidation. A fluorescent probe, 1,6-diphenylhexatriene propionic acid, is incorporated into the membranes such that the polar head group anchors the probe near the aqueous interface, while the hydrophobic portion lies parallel to the fatty acid chains. This probe reacts with the free radicals generated during peroxidation, resulting in a decrease in fluorescence intensity with time. A peroxidation initiator (such as ferrous metal ions or the free radical generator AAPH (Azobis-[2-amidinopropane hydrochloride]) is used to start the reaction, and the kinetics of fluorescence decrease are determined in the presence or absence of the antioxidant to be tested. An assay for a compound at a given concentration presently takes only twenty-one minutes, consumes only a few micrograms of lipid, and can be readily conducted with a simple fluorometer.
Briefly, the lipid is dissolved in chloroform, and is dried to a thin film using a rotary evaporator. The dried film is resuspended in an aqueous buffer, and is repeatedly extruded through a polycarbonate filter of 100 nm pore size using a Liposofast piposome extruder (Avestin, Inc., Ottawa, Canada). […] The fluorescent probe, diphenylhexatriene-propionic acid (DPH-PA), is incorporated into the vesicles during preparation at a mole ratio of 1:350 (probe:lipid). For the fluorescence experiments, LUVs containing DPH-PA is suspended at a final concentration of 100 μM in 100 mM NaCl, 50 mM tris-HEPES buffer at pH 7.0. The fluorescent probe is excited at 384 nm and emission is monitored at 423 nm. […] AAPH; the progress is monitored by the decrease of the fluorescence intensity of DPH-PA resulting from reaction with free radicals generated over twenty-one minutes. A plot of the decrease of fluorescence intensity as a function of time will be used to determine the kinetics of lipid oxidation.
^1 --Fuorescent intensity at 21 minutes.
^2 --Percent Inhibition based upon Fe^+2 oxidation.

Compound	% of inhibition (percent inhibition based upon Fe+2 oxidation) (2 μM) [%]	Fl. int. at 21 min. (fluorescent intensity at 21 minutes) (2 μM)	% of inhibition (percent inhibition based upon Fe+2 oxidation) (concentration not given) [%]	Fl. int. at 21 min. (fluorescent intensity at 21 minutes) (concentration not given)
C[C@@H]1O[C@@H](OC[C@H]2O[C@@H](Oc3cc4c(O)cc(O)cc4[o+]c3-c3ccc(O)c(O)c3)[C@H](O[C@@H]3O[C@H](CO)[C@@H](O)[C@H](O)[C@H]3O)[C@@H](O)[C@@H]2O)[C@H](O)[C@H](O)[C@H]1O [Anthocyanin 1, Cyanidin-3-(2"-O-β-D-glucopyranosyl-6"-O-α-L-rhamnosyl-β-D-glucopyranoside)]	38.6	0.48	–	–
C[C@@H]1O[C@@H](OC[C@H]2O[C@@H](Oc3cc4c(O)cc(O)cc4[o+]c3-c3ccc(O)c(O)c3)[C@H](O)[C@@H](O)[C@@H]2O)[C@H](O)[C@H](O)[C@H]1O [Anthocyanin II, Cyanidin-3-(6"-O-α-L-rhamnopyranosyl-β-D-glucopyranoside)]	–	–	70.0	0.7
COc1ccc(O)c(C(C)(C)C)c1 [BHA]	87.1	0.82	–	–
Cc1cc(C(C)(C)C)c(O)c(C(C)(C)C)c1 [BHT]	94.3	0.87	–	–
CCCOC(=O)c1cc(O)c(O)c(O)c1 [Propyl gallate]	78.6	0.76	–	–
CC(C)(C)c1cc(O)ccc1O [TBHQ]	90.0	0.84	–	–
Cc1c(C)c2c(c(C)c1O)CCC(C)(CCCC(C)CCCC(C)CCCC(C)C)O2 (centres unmarked) [a-Tocopherol]	0.0	0.21	–	–
